Among the test systems are SK-MEL-5 melanoma; EKVX NSCLC; SN12C renal; SF-295 CNS; CAKI-1 renal; HCT-15 colon; NCI-H226 lung; SF-539 CNS; UO-31 renal; HOP-62 NSCLC; HCC-2998 colon; OVCAR-3 ovarian; SNB-19 CNS.
Test in all cases: growth of human tumour cells (NCI), 48 h

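48-hour exposure; five concentrations; linearly interpolated endpoints. TGI denotes the concentration required for complete inhibition of growth.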

As to `COC(=O)C1(O)c2ccccc2N=C2C(=O)c3ccccc3N21` (stereo not drawn), the TGI with SK-MEL-5 melanoma, with EKVX NSCLC, in the experiment with SN12C renal, in the experiment with SF-295 CNS, in the experiment on CAKI-1 renal and in the experiment with HCT-15 colon was over 100 µM in each case. Further, the TGI in the experiment with NCI-H226 lung, in the experiment with SF-539 CNS, in the experiment with UO-31 renal, in the experiment with HOP-62 NSCLC, in the experiment with HCC-2998 colon and in the experiment on OVCAR-3 ovarian was over 100 µM each time.

For `CC(C)CCC[C@@H](C)C1CCC2[C@@H]3CCC4CC(CCC=C(c5cc(Cl)c(OC(=O)c6ccccc6)c(C(=O)O)c5)c5cc(Cl)c(OC(=O)c6ccccc6)c(C(=O)O)c5)CC[C@]4(C)C3CC[C@@]21C` (stereo partly drawn), the TGI with SK-MEL-5 melanoma is 78.8 µM; in the experiment on EKVX NSCLC, over 100 µM; in the experiment on SN12C renal, over 100 µM; with CAKI-1 renal it was over 100 µM; in the experiment on HCT-15 colon, over 100 µM; with NCI-H226 lung it was over 100 µM. For the same compound, the TGI in the experiment on SF-539 CNS, in the experiment with UO-31 renal, in the experiment with SNB-19 CNS, in the experiment on HOP-62 NSCLC, with HCC-2998 colon and with OVCAR-3 ovarian was over 100 µM each time.

Take `O=C(c1ccncc1)n1nc(-c2ccccc2)c(N=Nc2ccc([N+](=O)[O-])cc2)c1-c1ccccc1`: the TGI was over 100 µM in the experiment with SK-MEL-5 melanoma; 45.8 µM in the experiment on EKVX NSCLC; over 100 µM with SN12C renal; over 100 µM in the experiment on SF-295 CNS; over 100 µM with CAKI-1 renal; over 100 µM with NCI-H226 lung. Besides, the TGI in the experiment with SF-539 CNS is over 100 µM; in the experiment on UO-31 renal, 86.2 µM; in the experiment with SNB-19 CNS, over 100 µM; in the experiment on HOP-62 NSCLC, over 100 µM; in the experiment with HCC-2998 colon, over 100 µM; with OVCAR-3 ovarian it was over 100 µM.

On to `C=C[C@@]1(C)CC(=O)[C@]2(O)[C@@]3(C)[C@@H](OC(C)=O)CCC(C)(C)[C@@H]3[C@H](OC(C)=O)[C@H](OC(C)=O)[C@@]2(C)O1`, for which the TGI in the experiment with EKVX NSCLC, in the experiment on SN12C renal, in the experiment with SF-295 CNS, in the experiment on CAKI-1 renal, in the experiment with HCT-15 colon and in the experiment on NCI-H226 lung was over 100 µM throughout. The TGI in the experiment on SF-539 CNS, in the experiment with UO-31 renal, with SNB-19 CNS, in the experiment on HOP-62 NSCLC, with HCC-2998 colon and in the experiment with OVCAR-3 ovarian was over 100 µM each time.

`O=c1c2cccnc2nc2ccc3c[nH][nH]c3c12`: the TGI in the experiment on SK-MEL-5 melanoma, with EKVX NSCLC, in the experiment with SN12C renal, in the experiment with SF-295 CNS, with CAKI-1 renal and in the experiment with HCT-15 colon was over 10 µM each time. In addition, the TGI in the experiment with NCI-H226 lung, in the experiment on SF-539 CNS, in the experiment with SNB-19 CNS, with HOP-62 NSCLC, in the experiment on HCC-2998 colon and in the experiment with OVCAR-3 ovarian was over 10 µM throughout.

Consider `Cc1sc2nc3n(c(=O)c2c1C)N=C(c1ccc(Cl)cc1)CS3`, for which the TGI in the experiment with SK-MEL-5 melanoma, in the experiment on EKVX NSCLC, with SN12C renal, in the experiment on SF-295 CNS, in the experiment with CAKI-1 renal and in the experiment with HCT-15 colon was over 100 µM in each case. Besides, the TGI in the experiment on NCI-H226 lung, in the experiment on SF-539 CNS, with UO-31 renal, in the experiment on HOP-62 NSCLC, in the experiment with HCC-2998 colon and with OVCAR-3 ovarian was over 100 µM throughout.

With `CSc1cc(Cl)c(C)cc1S(=O)(=O)NC(=O)NNc1ccc(F)c(Cl)c1`, the TGI in the experiment on SK-MEL-5 melanoma, in the experiment with EKVX NSCLC, with SN12C renal, with SF-295 CNS, in the experiment on CAKI-1 renal and in the experiment with HCT-15 colon was over 100 µM in each case. Moreover, the TGI in the experiment with NCI-H226 lung, in the experiment on SF-539 CNS, in the experiment with SNB-19 CNS, in the experiment on HOP-62 NSCLC, in the experiment with HCC-2998 colon and with OVCAR-3 ovarian was over 100 µM in each case.

With `COC(=N)C12C(N)=NC(OC)(OC)C1(C#N)C21C(=O)N(c2ccccc2)N=C1C` (stereo not drawn), the TGI in the experiment on EKVX NSCLC, in the experiment on SN12C renal, in the experiment on SF-295 CNS, in the experiment on CAKI-1 renal, with HCT-15 colon and in the experiment with NCI-H226 lung was over 100 µM in each case. In addition, the TGI in the experiment with SF-539 CNS, in the experiment on UO-31 renal, with SNB-19 CNS, in the experiment on HOP-62 NSCLC, in the experiment with HCC-2998 colon and in the experiment with OVCAR-3 ovarian was over 100 µM throughout.

As to `CCC(=O)COc1ccc(NC(NC(=O)C(C(F)(F)F)C(F)(F)F)(C(F)(F)F)C(F)(F)F)cc1`, the TGI was over 100 µM in the experiment on SK-MEL-5 melanoma; over 100 µM in the experiment on EKVX NSCLC; over 100 µM in the experiment on SF-295 CNS; 94.1 µM in the experiment with CAKI-1 renal; over 100 µM in the experiment on HCT-15 colon; 47.6 µM in the experiment on NCI-H226 lung. The TGI was 55.2 µM with SF-539 CNS; over 100 µM with UO-31 renal; over 100 µM in the experiment on SNB-19 CNS; over 100 µM in the experiment on HOP-62 NSCLC; over 100 µM with HCC-2998 colon; over 100 µM in the experiment on OVCAR-3 ovarian.

Values taken from PubChem BioAssay (NCI).
